Assay results reported in patent publication EP1818058A2, “TREATMENT OF MMP-MEDIATED DERMATOLOGICAL DISEASES WITH PEMIROLAST” (Astion Pharma A/S, priority 2006, dated 2007).

How the values were obtained:
MMP-1 = target: T1, MMP-1 (Homo sapiens, UniProt P03956); test: MMP enzyme assay (fluorogenic Mca peptide substrate, MDS Pharma Services); type: biochemical; settings: concentration giving 50 % inhibition; MMP-1 from Human rheumatoid synovial fibroblast; read-out: Concentration of Pemirolast
T1 construct: The methods employ Human rheumatoid synovial fibroblast (MMP-1); endogenous in cells; host or cells: Human rheumatoid synovial fibroblast
T1 sequence (P03956 100-469): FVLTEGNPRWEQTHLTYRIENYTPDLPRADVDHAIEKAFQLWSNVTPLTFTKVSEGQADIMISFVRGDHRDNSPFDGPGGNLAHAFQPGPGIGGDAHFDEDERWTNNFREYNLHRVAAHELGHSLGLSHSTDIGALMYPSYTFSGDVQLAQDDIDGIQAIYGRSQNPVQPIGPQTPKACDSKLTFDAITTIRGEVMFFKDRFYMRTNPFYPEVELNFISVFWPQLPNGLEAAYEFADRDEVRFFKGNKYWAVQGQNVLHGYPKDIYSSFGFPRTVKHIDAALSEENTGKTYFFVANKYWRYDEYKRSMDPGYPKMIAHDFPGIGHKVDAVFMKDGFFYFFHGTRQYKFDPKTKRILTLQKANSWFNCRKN
Protocol: (§1) The inhibitory effect of Pemirolast on human MMP's and cytokines were determined by enzyme assays carried out by MDS Pharma Services.
(§2) The inhibition of MMP's can be determined according to the test methods described by Knight CG, Willenbrock F, Murphy G (A novel coumarin-labelled peptide for sensitive continuous assays of the matrix metalloproteinases, FEBS Lett. 1992 Jan 27;296(3):263-6); Johnson LL, Dyer R, Hupe DJ (Matrix metalloproteinases, Curr Opin Chem Biol. 1998 Aug;2(4):466-71); and Olson MW, Gervasi DC, Mobashery S, Fridman R (Kinetic analysis of the binding of human matrix metalloproteinase-2 and -9 to tissue inhibitor of metalloproteinase (TIMP)-1 and TIMP-2, J Biol Chem. 1997 Nov 21;272(47):29975-83). The methods employ Human rheumatoid synovial fibroblast (MMP-1) and Human recombinant (MMP-2 and MMP-3) and Human recombinant (E.coli) (MMP-7) as the MMP source. The substrate is Mca-Pro-Leu-Gly-Leu-Dpa-Ala-Arg-NH2. The enzymatic reaction is based on the conversion of Mca-Pro-Leu-Gly-Leu-Dpa-Ala-Arg to Mca-Pro-Leu-Gly + Leu-Dpa-Ala-Arg-NH2, where Mca-Pro-Leu-Gly is quantified using spectrofluorimetric quantitation. As reference compounds are employed TIMP-1 and TIMP-2. Such methods are commercially available at MDS Pharma Services.

MMP-2 = target: T2, MMP-2 (Homo sapiens, UniProt P08253); test: as above; type: biochemical; settings: concentration giving 50 % inhibition; Human recombinant MMP-2; read-out: Concentration of Pemirolast
T2 sequence (P08253 110-660): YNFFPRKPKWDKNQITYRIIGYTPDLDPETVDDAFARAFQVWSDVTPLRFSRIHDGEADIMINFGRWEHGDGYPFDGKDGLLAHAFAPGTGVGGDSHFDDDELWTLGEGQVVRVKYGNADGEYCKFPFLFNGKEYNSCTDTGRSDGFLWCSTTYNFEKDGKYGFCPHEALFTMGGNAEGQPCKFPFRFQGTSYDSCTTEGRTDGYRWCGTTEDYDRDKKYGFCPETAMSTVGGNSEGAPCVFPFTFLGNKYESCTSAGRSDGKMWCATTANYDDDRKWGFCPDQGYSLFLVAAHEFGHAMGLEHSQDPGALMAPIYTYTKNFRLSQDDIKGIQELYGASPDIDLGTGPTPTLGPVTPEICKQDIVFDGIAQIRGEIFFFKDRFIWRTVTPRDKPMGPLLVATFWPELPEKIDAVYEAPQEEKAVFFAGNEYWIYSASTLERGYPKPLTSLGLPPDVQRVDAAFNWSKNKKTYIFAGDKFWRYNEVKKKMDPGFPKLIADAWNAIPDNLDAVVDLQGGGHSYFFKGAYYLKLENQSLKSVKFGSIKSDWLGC
Protocol: as §1, §2

MMP-3 = MMP-3 (Homo sapiens, UniProt P08254); test: as above; type: biochemical; settings: concentration giving 50 % inhibition; Human recombinant MMP-3; read-out: Concentration of Pemirolast
Protocol: as §1, §2

MMP-7 = target: T3, MMP-7 (Homo sapiens, UniProt P09237); test: as above; type: biochemical; settings: concentration giving 50 % inhibition; Human recombinant (E.coli) MMP-7; read-out: Concentration of Pemirolast
T3 construct: host or cells: E. coli
T3 sequence (P09237 95-267): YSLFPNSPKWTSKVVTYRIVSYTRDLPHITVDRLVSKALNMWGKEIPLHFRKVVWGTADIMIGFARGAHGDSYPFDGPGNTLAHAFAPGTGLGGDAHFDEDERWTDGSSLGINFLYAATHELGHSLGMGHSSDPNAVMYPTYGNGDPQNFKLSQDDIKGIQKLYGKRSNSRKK
Protocol: as §1, §2

IL-1α = test: Cytokine production, LPS induced human PBMC; type: cell-based; settings: statement in words only, no value given
Protocol: (§3) The inhibition of Pemirolast on cytokine production was determined using the assay "LPS induced human PBMC".

TNF-α = test: Cytokine production, LPS induced human PBMC; type: cell-based; settings: concentration giving 50 % inhibition, read-out: Concentration of Pemirolast
Protocol: as §3

[1] = tested on: arachidonic acid-induced ear-inflammation; test: Arachidonic acid-induced ear-inflammation test in mice; type: in vivo, female BALB/cA mice; settings: intraperitoneally 30 minutes before arachidonic acid on the right ear
Protocol: The anti-inflammatory potential of Pemirolast can be tested in "arachidonic acid-induced ear-inflammation test in mice", a commonly employed method for screening and evaluation of antiinflammatory drugs. Dexamethasone was employed as reference compound.
The study can be performed in female BALB/cA mice from M & B A/S, DK-8680 Ry. The test substances (various concentration of Pemirolast dissolved in aqueous solutions) and the reference compound are administered intraperitoneally in volumes of 20 ml per kg body weight 30 minutes before application of arachidonic acid to the ear. All groups are then treated with 20 µl arachidonic acid, 100 mg/ml in acetone, on the right ear. One hour after the application of arachidonic acid the mice are sacrificed, the ears cut from the tip with a punch biopsy knife (8 mm diameter) and weighed. Mean weights and standard deviations are calculated. Relative ear oedema is assessed as the weight difference between right and left ear of each mouse expressed as percent of the left ear. Percent inhibition of the relative ear oedema compared with the vehicle treated groups is calculated for the test substance and reference compound treated groups. […]

acne vulgaris = test: Case of treatment of acne vulgaris; type: in vivo, person
From the text: A person was suffering from acne vulgaris characterised by comedones and some inflammatory lesions. They had previously regularly used a 5% benzoyl peroxide cream to treat the condition. During a flare up of the condition they applied a 5.0% aqueous solution of Pemirolast (potassium salt) once daily for four weeks to the areas affected. […] The treatment was followed and assessed by a physician.

[2] = person, 5.0% aqueous solution of Pemirolast (potassium salt) once daily for four weeks on affected areas

MMP-3, sequence (P08254 100-477): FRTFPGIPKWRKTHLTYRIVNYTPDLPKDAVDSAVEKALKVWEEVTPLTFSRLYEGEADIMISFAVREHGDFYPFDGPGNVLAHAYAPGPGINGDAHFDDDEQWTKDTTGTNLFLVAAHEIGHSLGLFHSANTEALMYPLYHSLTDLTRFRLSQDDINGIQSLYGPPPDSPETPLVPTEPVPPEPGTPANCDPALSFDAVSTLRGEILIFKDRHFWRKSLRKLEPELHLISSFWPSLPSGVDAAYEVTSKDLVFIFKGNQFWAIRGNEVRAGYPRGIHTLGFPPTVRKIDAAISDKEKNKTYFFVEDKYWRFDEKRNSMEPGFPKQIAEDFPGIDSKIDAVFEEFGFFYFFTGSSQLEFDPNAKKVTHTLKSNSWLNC

| IC50 (MMP-1) | IC50 (MMP-2) | IC50 (MMP-3) | IC50 (MMP-7) | IC50 (TNF-α) | Compound | inhibition of IL-1α (IL-1α) | inflammatory reaction in the arachidionic acid treated ear [1] | inflamed area surrounding the lesion (acne vulgaris; [2]) | inflammatory lesions (acne vulgaris; [2]) | reddened inflamed area (acne vulgaris; same patient, usual previous treatment with 5% benzoyl peroxide cream) |
| --- | --- | --- | --- | --- | --- | --- | --- | --- | --- | --- |
| 18 µM | 25 µM | 32 µM | 32 µM | 100 µM | Cc1cccn2c(=O)c(-c3nnn[nH]3)cnc12 [Pemirolast, 9-methyl-3-(1H-tetrazol-5-yl)-4H-pyrido[1,2-a]pyrimidin-4-one] | inhibits | significantly prevented the inflammatory reaction | recessed without any noticeable scarring | completely recessed |  |
|  |  |  |  |  | O=C(OOC(=O)c1ccccc1)c1ccccc1 [benzoyl peroxide] |  |  |  |  | did not remove the reddened inflamed area |
